# In EP0172919A1, “CEPHALOSPORIN DERIVATIVES, PROCESS FOR THEIR PREPARATION, AND THEIR PHARMACEUTICAL USE” (TEIJIN LIMITED, priority 1984, dated 1985):
# Like-named read-outs stand apart in the source and are kept apart here.
# Columns and labels:
# [1] = test system: Enterobacter cloacae 963; test: In vitro antibacterial activity, two-fold agar-plate dilution method (MIC); assay type: cell-based
# Experimental: (§1) In vitro antibacterial activity was determined by the two-fold agar-plate dillution method.
# (§2) One loopful of an overnight culture of each test starin in Trypticase-soy broth (10^6 viable cells per mt) was streaked on heart infusion agar (Muller-Hinton Agar) containing graded concentrations of representative test compound, and the minimal inhibitory concentration (MIC) was expressed in terms of µg/ml after incubation at 37°C for 16 hours.
# (§3) In vitro antibacterial activities of other compounds of the present invention were determined in the same way as in Example 26.
# [2] = test system: Proleus vulgaris IFO 3850; test: as above; assay type: cell-based
# Experimental: as §1, §2, §3
# [3] = test system: Proleus vulgaria OX-19; test: as above; assay type: cell-based; settings: 37°C for 16 hours
# Experimental: as §1, §2, §3
# [4] = test system: Salmonera paratyphi 1015; test: as above; assay type: cell-based
# Experimental: as §1, §2, §3
# [5] = test system: Proleus morgani IFO3848; test: as above; assay type: cell-based; settings: 37°C for 16 hours
# Experimental: as §1, §2, §3
# [6] = test system: Serratia marcescens IAM1184; test: as above; assay type: cell-based
# Experimental: as §1, §2, §3
# [7] = test system: Staphyrococcus Terajima; test: as above; assay type: cell-based
# Experimental: as §1, §2, §3
# [8] = test system: Pseudomonas aeruginosa IFO3445; test: as above; assay type: cell-based
# Experimental: as §1, §2, §3
# [9] = test system: Escherichia coli K-12C-600; test: as above; assay type: cell-based; settings: K12C600, 37°C for 16 hours
# Experimental: as §1, §2
# [10] = test system: Butilus subtilis ATCC6633; test: as above; assay type: cell-based; settings: 37°C for 16 hours
# Experimental: as §1, §2
# [11] = test system: Staphyrococcus pyogenes COOK; test: as above; assay type: cell-based
# Experimental: as §1, §2
# [12] = test system: Salmonera schottmuelleri 8001; test: as above; assay type: cell-based; settings: 37°C for 16 hours
# Experimental: as §1, §2
# [13] = test system: Micrococcus luteus ATCC9341; test: as above; assay type: cell-based
# Experimental: as §1, §2
# [14] = test system: Staphyrococcus aureus MS 353; test: as above; assay type: cell-based
# Experimental: as §1, §2
# [15] = test system: Staphyrococcus aureus FDA209JC-1; test: as above; assay type: cell-based
# Experimental: as §1, §2
# [16] = test system: Pseudomonas aeruginosa NCTC10490; test: as above; assay type: cell-based
# Experimental: as §1, §2
# [17] = test system: Pseudomonas aeruginosa PAO1; test: as above; assay type: cell-based
# Experimental: as §1, §2
# [18] = test system: Salmonera typhimurium IID 971; test: as above; assay type: cell-based; settings: 37°C for 16 hours
# Experimental: as §1, §2
# [19] = test system: E.coli 81; test: In vivo antibacterial activity: survival of mice infected with E.coli 81; parameters: species or system ICR strain male mice
# Experimental: Experiment was performed in ICR strain male mice (5W) weighing 22 to 25 g. The animals were used in a group of 10 per regimen. Test organism, E.coli 81, was cultured on Mueller-Hinton agar over night at 37°C and suspended in saline to be one minimal lethal dose (5 x 10^5 cells/head). One mililitre of the bacterial suspension was injected intrapenetoreally and, after 15 minutes, mice were treated subcutaneously with various doses of compound (100) and comparative compound B. Survival mice were counted for 4 days and final observation was carried out on day 4.
# [20] = Enterobacter cloacae 963, agar dilution, 37°C for 16 hours, read-out: MIC
# [21] = Proleus vulgaris IFO 3850, agar dilution, 37°C for 16 hours, read-out: MIC
# [22] = Serratia marcescens IAM1184, agar dilution, 37°C for 16 hours, read-out: MIC
# [23] = Staphyrococcus Terajima, agar dilution, 37°C for 16 hours, read-out: MIC
# [24] = Pseudomonas aeruginosa IFO3445, agar dilution, 37°C for 16 hours, read-out: MIC
# [25] = Serratia marcescens, IAM1184, 16 h
compound,measurement,setting,value
"CO/N=C(\C(=O)N[C@@H]1C(=O)N2C(C(=O)[O-])=C(C[N+]34CCCCC3CCCC4)CS[C@H]12)c1csc(N)n1 (stereo partly drawn) [Compound (104), (6R,7R)-[(Z)-2-(2-aminothiazol-4-yl)-2-methoxyiminoacetoamido]-3-(1-azabicyclo [4,4,0]decane-1-io) methyl-3-cephem-4-carboxylate]",MIC,[1]; [20],0.1 µg/mL
same,MIC,[2]; [21],0.0125 µg/mL
same,MIC,[3]; read-out: MIC,0.025 µg/mL
same,MIC,[4]; 16 h,0.025 µg/mL
same,MIC,[5]; read-out: MIC,0.0125 µg/mL
same,MIC,[6]; [22],0.025 µg/mL
same,MIC,[7]; [23],0.39 µg/mL
same,MIC,[8]; [24],1.56 µg/mL
CC(C)(ON=C(C(=O)NC1C(=O)N2C(C(=O)[O-])=C(C[n+]3ccccc3)CSC12)c1csc(N)n1)C(=O)O (stereo not shown) [Comparative compound A],MIC,"[1]; Enterobacter cloacae, 963, 16 h",0.2 µg/mL
same,MIC,[7]; 16 h,1.56 µg/mL
same,MIC,"[8]; Pseudomonas aeruginosa, IFO3445, 16 h",1.56 µg/mL
same,MIC,[9],0.2 µg/mL
same,MIC,[10],0.78 µg/mL
same,MIC,[11]; 16 h,0.0063 µg/mL
same,MIC,[12],0.025 µg/mL
same,MIC,"[13]; Micrococcus luteus, ATCC9341, 16 h",0.0063 µg/mL
same,MIC,[14]; 16 h,1.56 µg/mL
same,MIC,[15]; 16 h,1.56 µg/mL
same,MIC,"[16]; Pseudomonas aeruginosa, NCTC10490, 16 h",0.39 µg/mL
same,MIC,"[17]; Pseudomonas aeruginosa, PAO1, 16 h",0.1 µg/mL
same,MIC,[18],0.39 µg/mL
CON=C(C(=O)NC1C(=O)N2C(C(=O)O)=C(CSc3nnnn3C)CSC12)c1csc(N)n1 (stereo not shown) [Comparative compound B],Survivals percent (%) on day 4,[19]; Dose 0.016 mg/head subcutaneously 15 minutes after intraperitoneal E.coli 81 (5 x 10^5 cells/head),0%
same,Survivals percent (%) on day 4,[19]; Dose 0.032 mg/head subcutaneously 15 minutes after intraperitoneal E.coli 81 (5 x 10^5 cells/head),20%
same,Survivals percent (%) on day 4,[19]; Dose 0.063 mg/head subcutaneously 15 minutes after intraperitoneal E.coli 81 (5 x 10^5 cells/head),30%
same,Survivals percent (%) on day 4,[19]; Dose 0.125 mg/head subcutaneously 15 minutes after intraperitoneal E.coli 81 (5 x 10^5 cells/head),40%
same,Survivals percent (%) on day 4,[19]; Dose 0.25 mg/head subcutaneously 15 minutes after intraperitoneal E.coli 81 (5 x 10^5 cells/head),40%
same,Survivals percent (%) on day 4,[19]; Dose 0.5 mg/head subcutaneously 15 minutes after intraperitoneal E.coli 81 (5 x 10^5 cells/head),40%
same,MIC,[1]; [20],0.2 µg/mL
same,MIC,[7]; [23],0.78 µg/mL
same,MIC,[8]; [24],12.5 µg/mL
same,MIC,[9],0.05 µg/mL
same,MIC,[10],0.78 µg/mL
same,MIC,"[11]; Staphyrococcus pyogenes COOK, agar dilution, 37°C for 16 hours, read-out: MIC",0.025 µg/mL
same,MIC,[12],0.0063 µg/mL
same,MIC,"[13]; Micrococcus luteus ATCC9341, agar dilution, 37°C for 16 hours, read-out: MIC",0.39 µg/mL
same,MIC,"[14]; Staphyrococcus aureus MS 353, agar dilution, 37°C for 16 hours, read-out: MIC",0.2 µg/mL
same,MIC,"[15]; Staphyrococcus aureus FDA209JC-1, agar dilution, 37°C for 16 hours, read-out: MIC",3.12 µg/mL
same,MIC,"[16]; Pseudomonas aeruginosa NCTC10490, agar dilution, 37°C for 16 hours, read-out: MIC",0.39 µg/mL
same,MIC,"[17]; Pseudomonas aeruginosa PAO1, agar dilution, 37°C for 16 hours, read-out: MIC",12.5 µg/mL
same,MIC,[18],0.39 µg/mL
"CO/N=C(\C(=O)N[C@@H]1C(=O)N2C(C(=O)[O-])=C(C[N+]34CCC(CC3)C(O)C4)CS[C@H]12)c1csc(N)n1 (stereo partly drawn) [Compound (302), (6R,7R)-7-[(Z)-2-(2-aminothiazol-4-yℓ)-2-methoxyiminoacetoamido]-3-(1-aza-3-hydro-xybicyclo[2,2,2]octane-l-io)methyl-3-cephem-4-carboxylate]",MIC,[1]; [20],0.025 µg/mL
same,MIC,[2]; [21],0.0063 µg/mL
same,MIC,[3]; read-out: MIC,0.025 µg/mL
same,MIC,[4]; 16 h,0.0125 µg/mL
same,MIC,[5]; read-out: MIC,0.0063 µg/mL
same,MIC,[6]; [25],0.0125 µg/mL
same,MIC,[7]; [23],0.1 µg/mL
same,MIC,[8]; [24],0.39 µg/mL
"CC(C)(O/N=C(\C(=O)N[C@@H]1C(=O)N2C(C(=O)[O-])=C(C[N+]34CCCC3CCC4)CS[C@H]12)c1csc(N)n1)C(=O)O (stereo partly drawn) [Compound (116), (6R,7R)-7-[(Z)-2-(2-aminothiazol-4-yl)-2-(2-carboxypropyl-2-yloxyimino)acetoamido]-3-(1-azabicyclo[3,3,0]octane-l-io)methyl-3-cephem-4-carboxylate]",MIC,[1]; [20],0.05 µg/mL
same,MIC,[2]; [21],0.0063 µg/mL
same,MIC,[4]; 16 h,0.0125 µg/mL
same,MIC,[5]; read-out: MIC,0.0063 µg/mL
same,MIC,[6]; [25],0.0125 µg/mL
same,MIC,[7]; [23],0.78 µg/mL
same,MIC,[8]; [24],0.2 µg/mL
"CO/N=C(\C(=O)N[C@@H]1C(=O)N2C(C(=O)[O-])=C(C[N+]34CCC(CC3)C4)CS[C@H]12)c1csc(N)n1 [Compound (200), (6R,7R)-7-[(Z)-2-(2-aminothiazol-4-yℓ)-2-methoxyiminoacetoamido]-3-(1-azabicyclo[2,2,1]heptane-l-io)methyl-3-cephem-4-carboxylate]",MIC,[1]; [20],0.05 µg/mL
same,MIC,[2]; [21],0.0125 µg/mL
same,MIC,[3]; read-out: MIC,0.05 µg/mL
same,MIC,[4]; 16 h,0.025 µg/mL
same,MIC,[5]; read-out: MIC,0.0063 µg/mL
same,MIC,[6]; [22],0.025 µg/mL
same,MIC,[7]; [23],0.2 µg/mL
same,MIC,[8]; [24],1.56 µg/mL
"CO/N=C(\C(=O)N[C@@H]1C(=O)N2C(C(=O)[O-])=C(C[N+]34CCC(CC3)C(=O)C4)CS[C@H]12)c1csc(N)n1 [Compound (300), (6R,7R)-7-[(Z)-2-(2-aminothiazol-4-yl)-2-methoxyiminoacetoamido]-3-(1-aza-3-carbonyl-bicyclo[2,2,2]octane-l-io)methyl-3-cephem-4-carboxylate]",MIC,[1]; [20],0.025 µg/mL
same,MIC,[2]; 16 h,0.0125 µg/mL
same,MIC,[3]; read-out: MIC,0.025 µg/mL
same,MIC,[4]; 16 h,0.0125 µg/mL
same,MIC,[5]; read-out: MIC,> 0.0063 µg/mL
same,MIC,[6]; [25],0.0125 µg/mL
same,MIC,[7]; [23],0.2 µg/mL
same,MIC,[8]; [24],0.39 µg/mL
"CO/N=C(\C(=O)N[C@@H]1C(=O)N2C(C(=O)[O-])=C(C[N+]34CCCC3CCC4C)CS[C@H]12)c1csc(N)n1 (stereo partly drawn) [Compound (106), (6R,7R)-7-[(Z)-2-(2-aminothiazol-4-yℓ)-2-methoxyiminoacetoamido]-3-(l-aza-8-methl-bicyclo[3,3,0]octane-l-io)methyl-3-cephem-4-carboxylate]",MIC,"[1]; Enterobacter cloacae 963, agar dilution, 37°C for 16 hours",0.2 µg/mL
same,MIC,"[2]; Proleus vulgaris IFO 3850, agar dilution, 37°C for 16 hours",0.0125 µg/mL
same,MIC,[3],0.025 µg/mL
same,MIC,"[4]; Salmonera paratyphi 1015, agar dilution, 37°C for 16 hours",0.025 µg/mL
same,MIC,[5],0.025 µg/mL
same,MIC,"[6]; Serratia marcescens IAM1184, agar dilution, 37°C for 16 hours",0.05 µg/mL
same,MIC,"[7]; Staphyrococcus Terajima, agar dilution, 37°C for 16 hours",0.2 µg/mL
same,MIC,"[8]; Pseudomonas aeruginosa IFO3445, agar dilution, 37°C for 16 hours",0.78 µg/mL
